Measurements: patent US6841552B1, “3a,4,5,9b-tetrahydro-1H-benz[e]indol-2-yl amine-derived neuropeptide Y receptors ligands useful in the treatment of obesity and other disorders” (Ortho-McNeil Pharmaceutical, Inc., priority 1999, dated 2005)
Counter-ions that a name gives are not always drawn.

Tests used:
[1] = tested on: Food-Deprived Rats; experiment: Rodent feeding model: measurement of food intake in food-deprived rats; type: in vivo, Male Long-Evans rats; conditions: 30 mg/kg i.p.
From the text: Measurement of Food Intake in Food-Deprived Rats
Male Long-Evans rats (180-200 grams) are housed individually and are maintained on once-a-day feeding schedule (i.e., 10 a.m. until 4 p.m.) for five days following quarantine to allow the animals to acclimate to feeding on powdered chow (#5002 PMI Certified Rodent Meal) during the allotted time. The chow is made available in a open jar, anchored in the cage by a wire, with a metal follower covering the food to minimize spillage. Water is available ad-libitum.
Animals are fasted for 18 hours prior to testing. At the end of the fasting period, animal are administered either compounds of the invention or vehicle. Vehicle and test compounds are administered either orally (5 mL/kg) 60 minutes prior to the experiment, or 30 minutes prior when given subcutaneously (1 mL/kg) or intraperitoneally (1 mL/kg). Compounds of the invention are administered orally as a suspension in aqueous 0.5% methylcellulose-0.4% Tween 80, or intraperitoneally as a solution or suspension in PEG 200; compound concentrations typically range from 1 mg/kg to 100 mg/kg, preferably from 10-30 mg/kg. Food intake is measured at 2, 4, and 6 hours after administration by weighing the special jar containing the food before the experiment and at the specified times. Upon completion of the experiment, all animals are given a one-week washout period before retesting.
Percent reduction of food consumption is calculated subtracting the grams of food consumed by the treated group from the grams of food consumed by the control group divided by the grams of food consumed by the control group, multiplied by 100. A negative value indicates a reduction in food consumption and a positive value indicates an increase in food consumption. [formula]

[2] = biological target: T1, human neuropeptide Y5 receptor (Homo sapiens, UniProt Q15761); experiment: NPY5 HTS centrifugation assay: competition with 125I-PYY for binding to membranes of NPY5-transfected HEK293 cells
T1 construct: expressed in transfected cells; membranes
T1 sequence (Q15761 1-445): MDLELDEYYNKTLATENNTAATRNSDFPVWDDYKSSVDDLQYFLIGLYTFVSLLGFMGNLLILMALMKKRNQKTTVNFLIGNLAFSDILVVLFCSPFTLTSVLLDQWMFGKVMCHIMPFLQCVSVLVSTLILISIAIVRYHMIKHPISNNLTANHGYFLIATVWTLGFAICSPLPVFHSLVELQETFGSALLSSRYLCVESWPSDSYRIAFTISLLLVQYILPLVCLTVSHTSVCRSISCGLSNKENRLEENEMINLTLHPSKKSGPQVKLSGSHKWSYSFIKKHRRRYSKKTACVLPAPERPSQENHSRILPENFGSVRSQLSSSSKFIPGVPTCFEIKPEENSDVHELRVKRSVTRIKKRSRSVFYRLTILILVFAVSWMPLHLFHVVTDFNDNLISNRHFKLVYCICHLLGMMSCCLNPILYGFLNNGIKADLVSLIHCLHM
Experimental: NPY5 HTS Centrifugation Assay
The compounds described in this invention were evaluated for binding to the human neuropeptide Y5 receptor.
The human NPY5 receptor cDNA (Genbank Accession number U66275) was inserted into the vector pClneo (Invitrogen) and transfected into human embryonic kidney cells (HEK-293) via calcium phosphate method (Cullen 1987). Stably transfected cells were selected with G-418 (600 μg/mL). Stably transfected cells served as the source for the membranes for the NPY5 receptor binding assay.
NPY5-transfected HEK293 cells were grown to confluence in 150 cm^2 culture dishes. Cells were washed once with phosphate-buffered saline (Gibco Cat# 14040-133). Cells were then incubated in phosphate-buffered saline without calcium and without magnesium, supplemented with 2 mM EDTA. Cells were incubated for 10 minutes at room temperature and the cells were collected by repetitive pipeting. Cells were formed into pellets and then frozen at −80° C. until needed. Frozen pellets were homogenized with a polytron at full speed for 12 seconds in a homogenization buffer (20 mM Tris HCl, 5 mM EDTA, pH 7.4). Homogenates were centrifuged for 5 minutes at 4° C. at 200 g. Supernatants were transferred to corex tubes and centrifuged for 25 minutes at 28,000 g. Pellets were re-suspended in Binding (20 mM HEPES, 10 mM NaCl, 0.22 mM KH2PO4, 1.3 mM CaCl2, 0.8 mM MgSO4, pH 7.4). Membranes were kept on ice until use.
A competition binding assay, known to those skilled in the art, was used in which compounds of formula A compete with ^125I-PYY for binding to cell membranes. In simple terms, the less ^125I-PYY bound to the membranes implies that a compound is a good inhibitor (competitor). Bound ^125I-PYY is determined by centrifugation of membranes, aspirating supernatant, washing away residual ^125I-PYY and subsequently counting the bound sample in a gcounter.
Compounds to be tested were prepared as 10× stocks in binding buffer and added first to assay tubes (RIA vials, Sarstedt). Twenty (20) μL of each 10× compound stock is pipeted into vials and 80 μL of ^125I-PYY (NEN catalog number NEX240), which has been diluted to a concentration of 200 pM in 0.25% BSA in binding buffer, is added to the compound tubes (final concentration of ^125I-PYY is 80 pM). To each tube is added 100 μL of membranes and the mixture is agitated by pipeting 2 times. Samples are incubated for 1 hr at room temperature. Aluminum cast plates (Sarstedt) containing the vials are then centrifuged 10 minutes at 3200 rpm in a Sorvall RT6000. Supernatant is then aspirated. To each vial 400 μL PBS is added and this is then aspirated again. Vials are then put in carrier polypropylene 12×75 tube and counted in gamma counter (Packard). Non-specific binding is determined in the presence of 300 nM NPY. Percent inhibition of ^125I-PYY binding is calculated by subtracting non-specific binding from the test samples (compound (I)), taking these counts and dividing by total binding, and multiplying by 100. Inhibitory concentration values (IC50) of compounds that show appreciable inhibition of ^125I-PYY binding are calculated by obtaining percent inhibition of ^125I-PYY binding values at different concentrations of the test compound, and using a graphing program such as GraphPad Prism (San Diego, Calif.) to calculate the concentration of test compound that inhibits fifty-percent of ^125I-PYY binding (Table 4).

inhibition at 0.3 µM ([2]; % inhibition of 125I-PYY binding at 300 nM compound, read-out: % Inh @ 300 nM): 74%
inhibition at 3 µM ([2]; % inhibition of 125I-PYY binding at 3 uM compound): 97%
SMILES: O=S(=O)(NC[C@H]1CC[C@H](CNC2=N[C@@H]3CCc4cc(O)ccc4[C@@H]3C2)CC1)c1ccccc1 [Compound 10, N-[[trans-4-[[(cis-3a,4,5,9b-ttrahydro-7-hydroxy-1H-benz[e]indol-2-yl)amino]methyl]cyclohexyl]methyl]benzenesulfonamide hydrochloride]
Food Consumption (avg. grams) 0-2 h ([1]; 0-2 h, 18 h fasted rats): 4.38 g
Food Consumption 0-2 h (% chg.) ([1]; 0-2 h, change vs vehicle, negative = reduction): (−57%)
Food Consumption (avg. grams) 0-4 h ([1]; 0-4 h, 18 h fasted rats): 6.43 g
Food Consumption 0-4 h (% chg.) ([1]; 0-4 h, change vs vehicle, negative = reduction): (−53%)
Food Consumption (avg. grams) 0-6 h ([1]; 0-6 h, 18 h fasted rats): 10.75 g
Food Consumption 0-6 h (% chg.) ([1]; 0-6 h, change vs vehicle, negative = reduction): (−49%)
Food Consumption (avg. grams) 2-6 h ([1]; 2-6 h, 18 h fasted rats): 6.37 g
Food Consumption 2-6 h (% chg.) ([1]; 2-6 h, change vs vehicle, negative = reduction): (−41%)
